According to US20230234942A1, “COMPOUNDS FOR TREATING HUNTINGTON'S DISEASE” (PTC Therapeutics, Inc., priority 2020, published 2023):
pIC50: −log10 of the molar value.

System: Endogenous Huntingtin Protein
Test: Endogenous Huntingtin Protein Assay (ELISA-based MSD electrochemiluminescence)
Format: cell-based
Settings: Table 2; MSD plates coated with MW1 (expanded polyglutamine) or MAB2166 capture antibody; "inactive" = result above the detection limit of the assay
Procedure, shortened: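 Endogenous huntingtin measured on MSD plates coated with MW1 (polyglutamine-expanded) or MAB2166 capture antibody; lysates bound overnight at 4 °C. Signal developed with #56565 rabbit monoclonal and goat anti-rabbit SULFO-TAG (0.25 µg/mL, 1 h RT each), electrochemiluminescence read on SI 6000.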

pIC50	Structure (SMILES)
7.70	CCc1cc(-c2ccc(-c3cnc(N4CCN[C@@H](C(C)C)C4)nn3)c(O)c2)cn2cc(C)nc12 [Cpd 138, 5-(8-ethyl-2-methylimidazo[1,2-a]pyridin-6-yl)-2-{3-[(3S)-3-(propan-2-yl)piperazin-1-yl]-1,2,4-triazin-6-yl}phenol]
7.82	CC(C)(C)[C@H]1CN(c2ncc(-c3ccc(-n4nccn4)cc3O)nn2)CCN1 [Cpd 18, 2-{3-[(3S)-3-tert-butylpiperazin-1-yl]-1,2,4-triazin-6-yl}-5-(2H-1,2,3-triazol-2-yl)phenol]
7.56	Cn1nc2cc(-c3cnc(-c4cnc(N5CCN[C@@H](C6CC6)C5)nn4)c(O)c3)cnc2n1 [Cpd 180, 2-{3-[(3S)-3-cyclopropylpiperazin-1-yl]-1,2,4-triazin-6-yl}-5-(2-methyl-2H-[1,2,3]triazolo[4,5-b]pyridin-6-yl)pyridin-3-ol]
6.18	CC1(C)CN(c2ncc(-c3ccc(-c4cn[nH]c4)cc3O)nn2)CCN1 [Cpd 56, 2-[3-(3,3-dimethylpiperazin-1-yl)-1,2,4-triazin-6-yl]-5-(1H-pyrazol-4-yl)phenol]
7.83	CC1(C2CN(c3ncc(-c4ccc(-c5cn[nH]c5)cc4O)nn3)CCN2)CC1 (centres unmarked) [Cpd 134, 2-{3-[3-(1-methylcyclopropyl)piperazin-1-yl]-1,2,4-triazin-6-yl}-5-(1H-pyrazol-4-yl)phenol]
6.36	COC[C@H]1CN(c2ncc(-c3ccc(-c4cn[nH]c4)cc3O)nn2)CCN1 [Cpd 53, 2-{3-[(3R)-3-(methoxymethyl)piperazin-1-yl]-1,2,4-triazin-6-yl}-5-(1H-pyrazol-4-yl)phenol]
7.68	Cn1cc(-c2ccc(-c3cnc(N4CCN[C@@H](C(C)(C)C)C4)nn3)c(O)c2)cn1 [Cpd 21, 2-{3-[(3S)-3-tert-butylpiperazin-1-yl]-1,2,4-triazin-6-yl]-5-(1-methyl-1H-pyrazol-4-yl)phenol]
6.96	CC1CN(c2ncc(-c3ccc(-c4cn[nH]c4)cc3O)nn2)CCN1 (centres unmarked) [Cpd 42, 2-[3-(3-methylpiperazin-1-yl)-1,2,4-triazin-6-yl]-5-(1H-pyrazol-4-yl)phenol]
6.03	COc1cc(-c2ccc(-c3cnc(N4CCN[C@@H](C(C)C)C4)nn3)c(O)c2)cc(C)n1 [Cpd 271, 5-(2-methoxy-6-methylpyridin-4-yl)-2-{3-[(3S)-3-(propan-2-yl)piperazin-1-yl]-1,2,4-triazin-6-yl}phenol]
7.47	Oc1cc(-c2ccncn2)ccc1-c1cnc(N2CCN[C@@H](C3CC3)C2)nn1 [Cpd 192, 2-{3-[(3S)-3-cyclopropylpiperazin-1-yl]-1,2,4-triazin-6-yl}-5-(pyrimidin-4-yl)phenol]
6.63	CC(C)[C@H]1CN(c2ncc(-c3ncc(-n4nccn4)cc3O)nn2)CCN1 [Cpd 175, 2-{3-[(3S)-3-(propan-2-yl)piperazin-1-yl]-1,2,4-triazin-6-yl}-5-(2H-1,2,3-triazol-2-yl)pyridin-3-ol]
8.44	Cc1cn2nc(-c3ccc(-c4cnc(N5C[C@@H](C)N[C@@H](C)C5)nn4)c(O)c3)cc(C)c2n1 [Cpd 69, 5-(2,8-dimethylimidazo[1,2-b]pyridazin-6-yl)-2-{3-[(3R,5S)-3,5-dimethylpiperazin-1-yl]-1,2,4-triazin-6-yl}phenol]
6.52	Oc1cc(-c2ccncc2F)ccc1-c1cnc(N2CCN[C@@H](C3CC3)C2)nn1 [Cpd 178, 2-{3-[(3S)-3-cyclopropylpiperazin-1-yl]-1,2,4-triazin-6-yl}-5-(3-fluoropyridin-4-yl)phenol]
7.73	CC(C)[C@H]1CN(c2ncc(-c3ccc(-n4nccn4)cc3O)nn2)CCN1 [Cpd 154, 2-{3-[(3S)-3-(propan-2-yl)piperazin-1-yl]-1,2,4-triazin-6-yl}-5-(2H-1,2,3-triazol-2-yl)phenol]
8.41	[2H]C([2H])([2H])Oc1cc(-c2ccc(-c3cnc(N4CCN[C@@H](C5CC5)C4)nn3)c(O)c2)ncn1 [Cpd 2, 2-{3-[(3S)-3-cyclopropylpiperazin-1-yl]-1,2,4-triazin-6-yl}-5-{6-[(^2H3)methyloxy]pyrimidin-4-yl}phenol]
6.86	Cc1cc(-c2ccc(-c3cnc(N4CCNC(C(C)C)C4)nn3)c(O)c2)ccn1 (centres unmarked) [Cpd 44, 5-(2-methylpyridin-4-yl)-2-{3-[3-(propan-2-yl)piperazin-1-yl]-1,2,4-triazin-6-yl}phenol]
8.12	Cc1cn2cc(-c3ccc(-c4cnc(N5CCN[C@@H](C(C)C)C5)nn4)c(O)c3)cc(C)c2n1 [Cpd 131, 5-(2,8-dimethylimidazo[1,2-a]pyridin-6-yl)-2-{3-[(3S)-3-(propan-2-yl)piperazin-1-yl]-1,2,4-triazin-6-yl}phenol]

pIC50	Structure (SMILES)
7.26	CC(C)[C@H]1CN(c2ncc(-c3ccc(-c4ccc5nccn5c4)cc3O)nn2)CCN1 [Cpd 114, 5-(imidazo[1,2-a]pyridin-6-yl)-2-{3-[(3S)-3-(propan-2-yl)piperazin-1-yl]-1,2,4-triazin-6-yl}phenol]
6.43	Cc1cnsc1-c1ccc(-c2cnc(N3CCN[C@@H](C(C)C)C3)nn2)c(O)c1 [Cpd 253, 5-(4-methyl-1,2-thiazol-5-yl)-2-{3-[(3S)-3-(propan-2-yl)piperazin-1-yl]-1,2,4-triazin-6-yl}phenol]
8.43	Cn1nc2ccc(-c3ccc(-c4cnc(N5CCN[C@@H](C6CC6)C5)nn4)c(O)c3)nc2n1 [Cpd 202, 2-{3-[(3S)-3-cyclopropylpiperazin-1-yl]-1,2,4-triazin-6-yl}-5-(2-methyl-2H-[1,2,3]triazolo[4,5-b]pyridin-5-yl)phenol]
6.75	CC(C)[C@H]1CN(c2ncc(-c3ccc(-c4ccc5nncn5c4)cc3O)nn2)CCN1 [Cpd 115, 2-{3-[(3S)-3-(propan-2-yl)piperazin-1-yl]-1,2,4-triazin-6-yl}-5-([1,2,4]triazolo[4,3-a]pyridin-6-yl)phenol]
6.21	C[C@H]1CN(c2ncc(-c3ccc(-c4cn[nH]c4)cc3O)nn2)[C@@H](C)CN1 [Cpd 176, 2-{3-[(2S,5S)-2,5-dimethylpiperazin-1-yl]-1,2,4-triazin-6-yl}-5-(1H-pyrazol-4-yl)phenol]
6.70	CC1([C@@H]2CN(c3ncc(-c4ccc(-c5cnn6c5CCC6)cc4O)nn3)CCN2)CC1 [Cpd 281, 5-(5,6-dihydro-4H-pyrrolo[1,2-b]pyrazol-3-yl)-2-{3-[(3R)-3-(1-methylcyclopropyl)piperazin-1-yl]-1,2,4-triazin-6-yl}phenol]
7.27	CC[C@H]1CN(c2ncc(-c3ccc(-c4cn[nH]c4)cc3O)nn2)C[C@@H](C)N1 (racemic) [Cpd 148, 2-{3-[rac-(3S,5R)-3-ethyl-5-methylpiperazin-1-yl]-1,2,4-triazin-6-yl}-5-(1H-pyrazol-4-yl)phenol]
7.79	COc1cc(-c2cnc(-c3cnc(N4CCN(C)CC4)nn3)c(O)c2)cc2cn(C)nc12 [Cpd 121, 5-(7-methoxy-2-methyl-2H-indazol-5-yl)-2-[3-(4-methylpiperazin-1-yl)-1,2,4-triazin-6-yl]pyridin-3-ol]
8.35	CC(C)(O)C1CN(c2ncc(-c3ccc(-c4c[nH]nc4F)cc3O)nn2)CCN1 (centres unmarked) [Cpd 4, 5-(3-fluoro-1H-pyrazol-4-yl)-2-{3-[3-(2-hydroxypropan-2-yl)piperazin-1-yl]-1,2,4-triazin-6-yl}phenol]
7.86	COc1cc(-c2ccc(-c3cnc(N4C[C@@H](C)N[C@@H](C5CC5)C4)nn3)c(O)c2)nc(OC)n1 [Cpd 219, 2-{3-[(3S,5R)-3-cyclopropyl-5-methylpiperazin-1-yl]-1,2,4-triazin-6-yl}-5-(2,6-dimethoxypyrimidin-4-yl)phenol]
7.14	CC[C@@H]1CN(c2ncc(-c3ccc(-c4cc(OC)ncn4)cc3O)nn2)C[C@H](C)N1 [Cpd 228, 2-{3-[(3R,5S)-3-ethyl-5-methylpiperazin-1-yl]-1,2,4-triazin-6-yl}-5-(6-methoxypyrimidin-4-yl)phenol]
7.78	Oc1cc(-c2ccsn2)ccc1-c1cnc(N2CCN[C@@H](C3CC3)C2)nn1 [Cpd 252, 2-{3-[(3S)-3-cyclopropylpiperazin-1-yl]-1,2,4-triazin-6-yl}-5-(1,2-thiazol-3-yl)phenol]
7.85	[2H]C([2H])([2H])Oc1cc(-c2ccc(-c3cnc(N4CCN[C@@H](C(C)(C)C)C4)nn3)c(O)c2)ncn1 [Cpd 17, 2-{3-[(3S)-3-tert-butylpiperazin-1-yl]-1,2,4-triazin-6-yl}-5-{6-[(^2H3)methyloxy]pyrimidin-4-yl}phenol]
6.66	CC(C)[C@H]1CN(c2ncc(-c3ccc(-c4cnn5cccnc45)cc3O)nn2)CCN1 [Cpd 243, 2-{3-[(3S)-3-(propan-2-yl)piperazin-1-yl]-1,2,4-triazin-6-yl}-5-(pyrazolo[1,5-a]pyrimidin-3-yl)phenol]
7.48	Oc1cc(-c2cn[nH]c2)ccc1-c1cnc(N2CCNC(C3CCC3)C2)nn1 (centres unmarked) [Cpd 30, 2-[3-(3-cyclobutylpiperazin-1-yl)-1,2,4-triazin-6-yl]-5-(1H-pyrazol-4-yl)phenol]
8.07	Cc1cn2cc(-c3ccc(-c4cnc(N5CCN[C@@H](C(C)C)C5)nn4)c(O)c3)nc(C)c2n1 [Cpd 96, 5-(2,8-dimethylimidazo[1,2-a]pyrazin-6-yl)-2-{3-[(3S)-3-(propan-2-yl)piperazin-1-yl]-1,2,4-triazin-6-yl]phenol]

Structure (SMILES)	pIC50
CC(C)[C@H]1CN(c2ncc(-c3ccc(-c4ncns4)cc3O)nn2)C[C@@H](C)N1 (single isomer, unassigned) [Cpd 268, 2-{3-[(3R,5S)-3-methyl-5-(propan-2-yl)piperazin-1-yl]-1,2,4-triazin-6-yl}-5-(1,2,4-thiadiazol-5-yl)phenol or 2-{3-[(3S,5R)-3-methyl-5-(propan-2-yl)piperazin-1-yl]-1,2,4-triazin-6-yl}-5-(1,2,4-thiadiazol-5-yl)phenol]	6.90
[2H]C([2H])([2H])n1cc(-c2ccc(-c3cnc(N4CC5CCC(C4)N5C)nn3)c(O)c2)cn1 [Cpd 58, 2-[3-(8-methyl-3,8-diazabicyclo[3.2.1]octan-3-yl)-1,2,4-triazin-6-yl]-5-[l-(^2H3)methyl-1H-pyrazol-4-yl]phenol]	6.17
